Laboratory results reported in ChEMBL document CHEMBL1149437, “1-Alkyl-benzotriazole-5-carboxylic acids are highly selective agonists of the human orphan G-protein-coupled receptor GPR109b” (J Med Chem, 2006).
Active and inactive are the calls of the source. The rule behind the calls is not given here.

Legend:
[1] = molecular target: Hydroxycarboxylic acid receptor 3 (Homo sapiens, UniProt P49019); assay: Agonistic activity at GPR109b by cAMP whole cell assay; format: functional
[2] = molecular target: Hydroxycarboxylic acid receptor 2 (Mus musculus) (UniProt Q9EP66); assay: Activity against GPR109a upto 100 uM; format: functional
Chain of Hydroxycarboxylic acid receptor 2 (Mus musculus) (Q9EP66 whole entry): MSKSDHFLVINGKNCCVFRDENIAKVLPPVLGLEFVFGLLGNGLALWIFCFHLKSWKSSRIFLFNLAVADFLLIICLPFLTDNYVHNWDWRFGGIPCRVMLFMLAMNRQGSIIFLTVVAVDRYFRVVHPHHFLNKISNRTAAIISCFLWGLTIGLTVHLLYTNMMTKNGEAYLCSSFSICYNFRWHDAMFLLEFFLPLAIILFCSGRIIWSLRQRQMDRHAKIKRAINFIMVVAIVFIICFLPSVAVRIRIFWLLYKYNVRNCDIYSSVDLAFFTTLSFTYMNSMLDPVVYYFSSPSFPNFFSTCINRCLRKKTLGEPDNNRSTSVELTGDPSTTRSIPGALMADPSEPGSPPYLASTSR

[3] = molecular target: Adrenergic receptor beta (Homo sapiens) (UniProt P08588+P07550+P13945); assay: Activity against beta adrenergic receptor; format: protein assay

Chain of Hydroxycarboxylic acid receptor 3 (P49019 whole entry): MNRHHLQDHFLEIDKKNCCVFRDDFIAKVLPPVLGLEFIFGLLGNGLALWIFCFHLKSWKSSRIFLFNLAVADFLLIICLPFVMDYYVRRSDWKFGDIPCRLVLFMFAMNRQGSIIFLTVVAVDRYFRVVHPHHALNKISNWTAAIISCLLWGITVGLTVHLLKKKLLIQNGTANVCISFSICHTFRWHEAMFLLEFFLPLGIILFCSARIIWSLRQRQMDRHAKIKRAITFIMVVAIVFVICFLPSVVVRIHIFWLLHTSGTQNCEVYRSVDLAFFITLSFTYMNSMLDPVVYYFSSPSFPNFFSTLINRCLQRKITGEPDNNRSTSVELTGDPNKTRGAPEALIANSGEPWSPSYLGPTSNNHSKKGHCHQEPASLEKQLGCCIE

| Structure (SMILES) | EC50 [1] | Activity [2] | Log EC50 [1] | Activity [3] |
| --- | --- | --- | --- | --- |
| COCC(C)n1nnc2cc(C(=O)O)ccc21 (centres undefined) | 200 nM | inactive |  |  |
| CC(C)(C)n1nnc2cc(C(=O)O)ccc21 | 257 nM | inactive |  |  |
| Cc1nc2cc(C(=O)O)ccc2n1C(C)C |  | inactive | inactive |  |
| O=C(O)c1ccc2c(c1)nnn2Cc1cc(F)cc(F)c1 | > 10000 nM | inactive |  |  |
| CCCCCn1nnc2cc(C(=O)O)ccc21 | 288 nM | inactive |  |  |
| O=C(O)c1ccc2c(c1)nnn2C1CCCC1 | 1100 nM | inactive |  |  |
| O=C(O)c1ccc2c(c1)nnn2-c1ccccc1 |  | inactive | inactive |  |
| CC(C)n1nnc2cc(C(=O)O)ccc21 | 398 nM | inactive |  | inactive |
| O=C(O)c1ccc2c(c1)nnn2C1CC1 | 2340 nM | inactive |  |  |
| O=C(O)c1ccc2c(c1)nnn2C1CCC1 | 3090 nM | inactive |  |  |
| O=C(O)c1ccc2c(c1)nnn2C(c1ccccc1)c1ccccc1 | > 10000 nM | inactive |  |  |
| COCCn1nnc2cc(C(=O)O)ccc21 | 316 nM | inactive |  |  |
| O=C(O)c1ccc2c(c1)nnn2Cc1ccccc1 | 9120 nM | inactive |  |  |
| CCCn1nnc2cc(C(=O)O)ccc21 | 7410 nM | inactive |  |  |

Next, values leading:

| EC50 [1] | Activity [2] | Log EC50 [1] | Activity [3] | Structure (SMILES) |
| --- | --- | --- | --- | --- |
| 891 nM | inactive |  |  | CCn1nnc2cc(C(=O)O)ccc21 |
| 257 nM | inactive |  |  | CCOCCn1nnc2cc(C(=O)O)ccc21 |
|  | inactive | inactive |  | C=CCn1nnc2cc(C(=O)O)ccc21 |
| 3390 nM | inactive |  |  | CC(C)n1cnc2cc(C(=O)O)ccc21 |
|  | inactive | inactive |  | O=C(O)c1ccc2[nH]nnc2c1 |
| 692 nM | inactive |  |  | CCCCn1nnc2cc(C(=O)O)ccc21 |
| 5010 nM | inactive |  |  | COc1cccc(Cn2nnc3cc(C(=O)O)ccc32)c1 |
| 331 nM | inactive |  |  | CCC(C)n1nnc2cc(C(=O)O)ccc21 (centres undefined) |
| 2000 nM | inactive |  |  | Cn1nnc2cc(C(=O)O)ccc21 |
|  | inactive | inactive |  | CC(C)n1nnc2cc(-c3nn[nH]n3)ccc21 |
| 302 nM | inactive |  |  | CCSCCn1nnc2cc(C(=O)O)ccc21 |
| 5890 nM | inactive |  |  | O=C(O)c1ccc2c(c1)nnn2C1CCCCC1 |
|  | inactive | inactive |  | COc1ccc(Cn2nnc3cc(C(=O)O)ccc32)cc1 |
| 3020 nM | inactive |  |  | CCC(CC)n1nnc2cc(C(=O)O)ccc21 |
|  | inactive | inactive |  | O=C(O)c1ccc2c(c1)nnn2CC1CC1 |
